The text below walks through data of US11110103B2, “Inhibitors of glucocorticoid receptor” (ORIC Pharmaceuticals, Inc., priority 2015, dated 2021).

In general, pIC50 refers to −log10 of the IC50, conventionally taken in molar units.

pIC50: −log10 of the molar value.

The assay has as its target T1, GR (Homo sapiens, UniProt P04150).
T1 construct: expressed in transfected cells; host or cells: CHO-K1 (CHO-K1-GR-MMTV-Luc reporter cells)
T1 sequence (P04150 1-777): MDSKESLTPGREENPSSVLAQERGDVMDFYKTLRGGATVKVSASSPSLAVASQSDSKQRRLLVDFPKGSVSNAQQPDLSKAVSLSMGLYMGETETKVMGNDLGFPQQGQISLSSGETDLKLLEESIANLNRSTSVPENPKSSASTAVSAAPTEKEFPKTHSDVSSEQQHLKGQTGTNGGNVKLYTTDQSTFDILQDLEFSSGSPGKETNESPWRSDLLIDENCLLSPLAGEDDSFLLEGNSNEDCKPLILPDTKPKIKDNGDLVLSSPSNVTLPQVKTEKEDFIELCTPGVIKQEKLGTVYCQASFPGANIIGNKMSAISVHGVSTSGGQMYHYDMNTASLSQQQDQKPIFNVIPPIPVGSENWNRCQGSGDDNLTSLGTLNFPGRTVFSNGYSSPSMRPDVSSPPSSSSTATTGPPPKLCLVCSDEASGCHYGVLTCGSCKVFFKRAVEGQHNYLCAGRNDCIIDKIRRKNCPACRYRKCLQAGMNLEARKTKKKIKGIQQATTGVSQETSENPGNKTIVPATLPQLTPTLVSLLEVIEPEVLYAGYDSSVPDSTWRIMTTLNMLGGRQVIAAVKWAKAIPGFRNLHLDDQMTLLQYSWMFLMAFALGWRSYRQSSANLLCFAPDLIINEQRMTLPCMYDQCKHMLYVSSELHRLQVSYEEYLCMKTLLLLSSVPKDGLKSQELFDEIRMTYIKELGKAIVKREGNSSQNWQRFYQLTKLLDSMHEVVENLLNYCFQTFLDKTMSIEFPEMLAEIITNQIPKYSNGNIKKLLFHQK
The assay is described as follows: In Vitro GR Luciferase Reporter Assay (antagonist assay). The format is cell-based. To be noted: CHO-K1-GR-MMTV-Luc reporter cells, 10 nM Dexamethasone, 18-24 hours. How it is done: Cell Line: CHO-K1-GR-MMTV-Luc reporter cells
Culture Media: DMEM (with phenol red)+10% FBS
Assay Media: DMEM (without phenol red)+10% CSS
Culture CHO-K1-GR-MMTV-Luc reporter cells in 15 cm plates in Culture Media at conditions less than 90% confluence.
Prepare 200×DMSO 1:5 serial dilutions of control and test compounds in 96-well non-sterile V bottom plate in DMSO, 8 serial dilutions for each compound.
Add compounds: 5 ul of assay media diluted compounds were added to appropriate wells and followed a quick spin (1000 rpm, 10 sec) to bring media and cells to the bottom of plate. The plates were covered with SealMate film to avoid evaporation and placed in 37° C. incubator for approximately 18-24 hours.
Read plates: Equilibrate appropriate amount of Promega OneGlo luciferase reagent to room temperature. Remove the plates from incubator and add 25 uL of OneGlo reagent/well by multiple channel pipette and read the plates with Tecan F500 luminometer within 3 minutes.
The ability of the compounds disclosed herein to inhibit GR activity was quantified and the respective IC50 value was determined.
For orientation: Reporter assays use an easily measured gene product as a stand-in for the process of interest.
`CC#C[C@]1(O)CC[C@H]2[C@@H]3CCC4=CC(=O)CCC4=C3[C@@H](c3ccc(NS(=O)(=O)c4ccc(C)cc4)cc3)C[C@@]21C` gave a pIC50 below 7.00.

For `CC#C[C@]1(O)CC[C@H]2[C@@H]3CCC4=CC(=O)CCC4=C3[C@@H](c3cccc(C(C)O)c3)C[C@@]21C` (some centres unmarked), the pIC50 was below 7.00. To `CC#C[C@]1(O)CC[C@H]2[C@@H]3CCC4=CC(=O)CCC4=C3[C@@H](c3cccc(C4CC4)c3)C[C@@]21C` belongs above 7.00; to `CC#C[C@]1(O)CC[C@H]2[C@@H]3CCC4=CC(=O)CCC4=C3[C@@H](c3cccc(CC)c3)C[C@@]21C`, above 7.00. The value for `CC#C[C@]1(O)CC[C@H]2[C@@H]3CCC4=CC(=O)CCC4=C3[C@@H](c3cccc(COC)c3)C[C@@]21C` was above 7.00; that for `CC#C[C@]1(O)CC[C@H]2[C@@H]3CCC4=CC(=O)CCC4=C3[C@@H](c3cccc(OC(C)C)c3)C[C@@]21C` was below 7.00; that for `CC#C[C@]1(O)CC[C@H]2[C@@H]3CCC4=CC(=O)CCC4=C3[C@@H](c3cccc(C(C)(C)C)c3)C[C@@]21C` was below 7.00. The value for `CC#C[C@]1(O)CC[C@H]2[C@@H]3CCC4=CC(=O)CCC4=C3[C@@H](c3ccc(C)c(F)c3)C[C@@]21C` was above 7.00; that for `CC#C[C@]1(O)CC[C@H]2[C@@H]3CCC4=CC(=O)CCC4=C3[C@@H](c3ccc(C(C)C)c(OC)c3)C[C@@]21C` was above 7.00; that for `CC#C[C@]1(O)CC[C@H]2[C@@H]3CCC4=CC(=O)CCC4=C3[C@@H](c3ccc(C)c(OC)c3)C[C@@]21C` was above 7.00. Take `CC#C[C@]1(O)CC[C@H]2[C@@H]3CCC4=CC(=O)CCC4=C3[C@@H](c3ccc(C)c(N(C)C)c3)C[C@@]21C`: the pIC50 was above 7.00. `CC#C[C@]1(O)CC[C@H]2[C@@H]3CCC4=CC(=O)CCC4=C3[C@@H](c3ccc(OC)c(C(C)C)c3)C[C@@]21C`: the pIC50 was above 7.00. To `CC#C[C@]1(O)CC[C@H]2[C@@H]3CCC4=CC(=O)CCC4=C3[C@@H](c3ccc(C)c(N4CCC4)c3)C[C@@]21C` belongs below 7.00. To `CC#C[C@]1(O)CC[C@H]2[C@@H]3CCC4=CC(=O)CCC4=C3[C@@H](c3ccc(F)c(OC)c3)C[C@@]21C` belongs below 7.00; to `CC#C[C@]1(O)CC[C@H]2[C@@H]3CCC4=CC(=O)CCC4=C3[C@@H](c3ccc(Cl)c(N(C)C)c3)C[C@@]21C`, below 7.00. The value for `CC#C[C@]1(O)CC[C@H]2[C@@H]3CCC4=CC(=O)CCC4=C3[C@@H](c3ccc(F)c(N(C)C)c3)C[C@@]21C` was below 7.00. Take `CC#C[C@]1(O)CC[C@H]2[C@@H]3CCC4=CC(=O)CCC4=C3[C@@H](c3ccc(Cl)c(C4CC4)c3)C[C@@]21C`: the pIC50 was below 7.00.

As for `CC#C[C@]1(O)CC[C@H]2[C@@H]3CCC4=CC(=O)CCC4=C3[C@@H](c3c(F)cc(N4CCOCC4)cc3F)C[C@@]21C`, the pIC50 was above 7.00.

For `CC#C[C@]1(O)CC[C@H]2[C@@H]3CCC4=CC(=O)CCC4=C3[C@@H](c3c(F)cc(N4CCCC4)cc3F)C[C@@]21C`, the pIC50 was above 7.00. `CC#C[C@]1(O)CC[C@H]2[C@@H]3CCC4=CC(=O)CCC4=C3[C@@H](c3c(F)cc(N(C)CC)cc3F)C[C@@]21C` showed a pIC50 above 7.00. In the case of `CC#C[C@]1(O)CC[C@H]2[C@@H]3CCC4=CC(=O)CCC4=C3[C@@H](c3cc(F)c(N(C)C)c(F)c3)C[C@@]21C`, the pIC50 is above 7.00. To `CC#C[C@]1(O)CC[C@H]2[C@@H]3CCC4=CC(=O)CCC4=C3[C@@H](c3c(F)cc(CC)cc3F)C[C@@]21C` belongs above 7.00.

The molecule `CC#C[C@]1(O)CC[C@H]2[C@@H]3CCC4=CC(=O)CCC4=C3[C@@H](c3cc(C)c(N(C)C)c(F)c3)C[C@@]21C` showed a pIC50 above 7.00. Consider `CC#C[C@]1(O)CC[C@H]2[C@@H]3CCC4=CC(=O)CCC4=C3[C@@H](c3c(F)cc(C)cc3F)C[C@@]21C`, for which the pIC50 is above 7.00. Turning to `CC#C[C@]1(O)CC[C@H]2[C@@H]3CCC4=CC(=O)CCC4=C3[C@@H](c3cc(F)c(N(C)C)cc3F)C[C@@]21C`, the negative logarithm of the IC50 (pIC50) is above 7.00. On to `CC#C[C@]1(O)CC[C@H]2[C@@H]3CCC4=CC(=O)CCC4=C3[C@@H](c3cc(F)c(OC)c(F)c3)C[C@@]21C`, for which the pIC50 is above 7.00.

`CC#C[C@]1(O)CC[C@H]2[C@@H]3CCC4=CC(=O)CCC4=C3[C@@H](c3c(F)cc(OC)cc3F)C[C@@]21C`: the pIC50 is above 7.00. In turn, `CC#C[C@]1(OC(C)=O)CC[C@H]2[C@@H]3CCC4=CC(=O)CCC4=C3[C@@H](c3cc(F)c(C)c(F)c3)C[C@@]21C` gave a negative logarithm of the IC50 (pIC50) above 7.00. To `CC#C[C@]1(OC(=O)CC)CC[C@H]2[C@@H]3CCC4=CC(=O)CCC4=C3[C@@H](c3cc(F)c(C)c(F)c3)C[C@@]21C` belongs below 7.00; to `CC#C[C@]1(OC)CC[C@H]2[C@@H]3CCC4=CC(=O)CCC4=C3[C@@H](c3cc(F)c(C)c(F)c3)C[C@@]21C`, below 7.00.

`CC#C[C@]1(O)CC[C@H]2[C@@H]3CCC4=CC(=O)CCC4=C3[C@@H](c3ccc4c(c3)OCCCO4)C[C@@]21C`: the pIC50 was above 7.00. Molecule `CC#C[C@]1(O)[C@H](C)C[C@H]2[C@@H]3CCC4=CC(=O)CCC4=C3[C@@H](c3c(F)cc(N4CCOCC4)cc3F)C[C@@]21C` gave a pIC50 above 7.00. `CC#C[C@]1(O)[C@H](C)C[C@H]2[C@@H]3CCC4=CC(=O)CCC4=C3[C@@H](c3c(F)cc(N(C)C)cc3F)C[C@@]21C` gave a pIC50 above 7.00.

Regarding `CC#C[C@]1(O)C2(CC2)C[C@H]2[C@@H]3CCC4=CC(=O)CCC4=C3[C@@H](c3ccc(S(=O)(=O)N(C)C)cc3)C[C@@]21C`, the pIC50 was above 7.00. For the molecule `CC#C[C@]1(O)[C@H](C)C[C@H]2[C@@H]3CCC4=CC(=O)CCC4=C3[C@@H](c3ccc(C)c(F)c3)C[C@@]21C`, the pIC50 is above 7.00.

The molecule `CC#C[C@]1(O)[C@H](C)C[C@H]2[C@@H]3CCC4=CC(=O)CCC4=C3[C@@H](c3ccc(S(=O)(=O)N(C)C)cc3)C[C@@]21C` showed a pIC50 above 7.00. To `CC#C[C@]1(O)C2(CC2)C[C@H]2[C@@H]3CCC4=CC(=O)CCC4=C3[C@@H](c3c(F)cc(N(C)C)cc3F)C[C@@]21C` belongs above 7.00; to `CC#C[C@]1(O)[C@H](C)C[C@H]2[C@@H]3CCC4=CC(=O)CCC4=C3[C@@H](c3c(F)cc(N4CCC4)cc3F)C[C@@]21C`, above 7.00.

For the molecule `CC#C[C@]1(O)[C@H](C)C[C@H]2[C@@H]3CCC4=CC(=O)CCC4=C3[C@@H](c3cc(F)c(N(C)C)c(F)c3)C[C@@]21C`, the pIC50 was above 7.00. `CC#C[C@]1(O)[C@H](CC)C[C@H]2[C@@H]3CCC4=CC(=O)CCC4=C3[C@@H](c3ccccc3)C[C@@]21C` gave a pIC50 below 7.00. To `CC#C[C@]1(O)[C@H](C)C[C@H]2[C@@H]3CCC4=CC(=O)CCC4=C3[C@@H](c3ccc(S(=O)(=O)C(C)(C)C)cc3)C[C@@]21C` belongs below 7.00; to `CC#C[C@]1(O)[C@H](C)C[C@H]2[C@@H]3CCC4=CC(=O)CCC4=C3[C@@H](c3cc(F)c(C)c(F)c3)C[C@@]21C`, below 7.00; to `[2H]C([2H])([2H])C#C[C@]1(O)CC[C@H]2[C@@H]3CCC4=CC(=O)CCC4=C3[C@@H](c3ccc4c(c3)OCCO4)C[C@@]21C`, above 7.00.

In turn, `CC#C[C@]1(O)CC[C@H]2[C@@H]3CCC4=CC(=O)CCC4=C3[C@@H](c3ccc(S(=O)(=O)N4CCCCC4)cc3)C[C@@]21C` [drawing 181] had a pIC50 above 7.00. The value for `CC#C[C@]1(O)CC[C@H]2[C@@H]3CCC4=CC(=O)CCC4=C3[C@@H](c3ccc(S(=O)(=O)C(C)(C)C)cc3)C[C@@]21C` [drawing 182] was above 7.00; that for `CC#C[C@]1(O)CC[C@H]2[C@@H]3CCC4=CC(=O)CCC4=C3[C@@H](c3cccc(C(C)C)c3)C[C@@]21C` [drawing 185] was above 7.00; that for `CC#C[C@]1(O)CC[C@H]2[C@@H]3CCC4=CC(=O)CCC4=C3[C@@H](c3cccc(OCC)c3)C[C@@]21C` [drawing 186] was above 7.00.
